Reference: patent publication US9468654B1, “Drug delivery compositions and methods” (WILKES UNIVERSITY, priority 2014, dated 2016)

Format: physicochemical
From the text: Referring to FIGS. 1A and B, differential scanning calorimetry thermographs compare the melting of (1A) lysine and (1B) a lysine-based drug delivery composition, according to this example. […] These observations, further confirmed with Raman spectroscopy and x-ray powder diffraction, are consistent with the nanosizing effect on melting point and thermal stability of crystals due to the increased surface to volume ratio.

## NCCCC[C@H](N)C(=O)O [lysine]
  onset decomposition temperature (thermal stability): about 257 °C
